According to US9061066B2 (priority 2010, dated 2015):

Assays:
[1] = test system: CD8+ OT-I T cells in C57B1/6 Ly5.1 mice; conditions: mouse, in vivo, sc
mouse DCs [2] = assay type: cell-based
mouse DCs [3] = assay type: cell-based; remark: listed apart in the source

| Substance | OT-I T cell proliferation in the draining lymph node [1] | surface expression of CD80, CD86, CD40 and MHC class II, comparison of cyclic glucan structures (mouse DCs [2]) | TNF-alpha and IL-12 secretion, comparison of cyclic glucan structures (mouse DCs [3]) |
| --- | --- | --- | --- |
| Poly I/C | OT-I T cell proliferation | – | – |
| methyl-cyclodextrin [MβCD] | – | failed to significantly activate DC | none of the cytokines were secreted |
